The structures appear in SMILES notation.

Data set [1] relates to human sclera-choroid-RPE (SCRPE). Description: In vitro transport of transporter substrate cassette across human sclera-choroid-RPE. To be noted: human SCRPE; for sclera to retina transport in presence of transporter specific inhibitor (in words): inhibitor cocktail 500 μM; for sclera to retina transport compared with retina to sclera transport (in words): substrate cassette 100 μM. The method, then:
(§1) In vitro transport studies across human cornea and sclera-choroid-RPE (SCRPE) were carried out according to previously published method using the cassette dosing approach. Briefly, cassette of drug transporter substrate including Gly-Sar (PEPT), L-tryptophan (ATB^0+), MPP^+ (OCT), and phenyl acetic acid (MCT) at concentration of 100 μM in assay buffer was prepared. Briefly, the human eyes were washed with assay buffer and cleaned from muscle and conjunctiva tissues, and anterior and posterior parts were separated by giving circumferential cut behind the limbus. Small sclera part was left with cornea, which helps in mounting of cornea on Ussing chambers. Neural retina was separated from the choroid-RPE by filling the eye cup with assay buffer, and floating retina was collected. After separation of retina, eye cup was divided into two rectangular pieces (˜1.5×1.5 cm) of sclera-choroid-RPE. Isolated tissues were mounted on modified Ussing chambers (Navicyte, Sparks, Nev.) such that the episcleral side of SCRPE or epithelial side of cornea was facing the donor chamber and retinal side or endothelial side of cornea is facing the receiver chamber. To study the effect of directionality on transport, one set of Ussing chambers mounted so that sclera side facing the donor side and another set was mounted so that choroid-RPE facing the donor side. The effect of directionality of transport across cornea was not evaluated. The chambers were filled with 1.5 ml of assay buffer with (donor side) or without (receiver side) the cocktail of drug transporter substrates. For study of effect of transporter inhibitors, cocktail mixture (500 μM) of transporter inhibitor was added on both donor and acceptor side.
(§2) During the transport study, the bathing fluids were maintained at 37° C. using a circulating warm water and pH 7.4 using 95% air-5% CO2 aeration. Samples were collected (200 μL) form receiver side every hour for 6 hr and the lost volume was compensated with fresh assay buffer pre-equilibrated at 37° C. The drug levels were analyzed using a LC-MS/MS assay. Permeation data were corrected for dilution of the receiver solution with sample volume replenishment.
Analytes concentrations in transport study samples were analyzed using LC-MS/MS method after 5-fold dilution with acetonitrile to reduce the salt concentrations. Cassette analysis method was developed for simultaneous analysis of Gly-Sar, L-tryptophan and MPP^+. Phenyl acetic acid was analyzed separately in negative ionization method and normal phase separation method. An API-3000 triple quadrupole mass spectrometry (Applied Biosystems, Foster City, Calif., USA) coupled with a PerkinElmer series-200 liquid chromatography (Perkin Elmer, Walthm, Mass., USA) system was used for analysis. Gly-Sar, L-tryptophan and MPP^+ were separated on Supelco C-5 column (2.1×10 mm, 3 μm) using water containing 0.1% formic acid (A) and acetonitrile:methanol (50:50 v/v) containing 0.1% formic acid (B) as mobile phase and a linear gradient elution at a flow rate of 0.3 ml/min with total run time of 9 min. Phenyl acetic acid was separated in normal phase separation mode using Obelisc-N silica column (2.1×10 mm, 3 μM) using 5 mM ammonium formate, pH 3.5 (A) and acetonitrile (B) as mobile phase in linear gradient mode at flow rate of 0.3 ml with total run time of 6 min. Gly-Sar, L-tryptophan, and MPP^+ were analyzed in positive ionization mode with following multiple reaction monitoring (MRM) transitions: 147→90 (Gly-Sar); 205→188 (L-tryptophan); 170→128 (MPP^+). Phenyl acetic acid was analyzed in negative ionization mode with following multiple reaction monitoring (MRM) transitions: 135→91 (Phenyl acetic acid).

Data set [2] relates to human cornea. The experiment in a line: In vitro transport of transporter substrate cassette across human cornea. The settings on record: for transport in presence of transporter inhibitor (in words): apical to basal, inhibitor cocktail 500 μM. On the procedure:
as §1, with “The effect of directionality of transport across cornea was not evaluated.” left out
as §2
Analytes concentrations in transport study samples were analyzed using LC-MS/MS method after 5-fold dilution with acetonitrile to reduce the salt concentrations. […] Phenyl acetic acid was analyzed separately in negative ionization method and normal phase separation method. […] Gly-Sar, L-tryptophan, and MPP^+ were analyzed in positive ionization mode with following multiple reaction monitoring (MRM) transitions: 147→90 (Gly-Sar); 205→188 (L-tryptophan); 170→128 (MPP^+). Phenyl acetic acid was analyzed in negative ionization mode with following multiple reaction monitoring (MRM) transitions: 135→91 (Phenyl acetic acid).

Data set [3] has as its system calf sclera-choroid-RPE (SCRPE). The experiment in a line: In vitro transport of substrate cassette across normoxic and hypoxic calf SCRPE. To be noted: for apparent permeability (Papp) across hypoxic vs normoxic tissue (in words) / transport across hypoxic vs normoxic tissue (in words): calf SCRPE; for transport across hypoxic vs normoxic tissue (in words): cassette 100 μM. An excerpt: (§3) Animals used in this study were those that were sacrificed as part of other experiments approved by the Institutional Animal Care Committee of the Colorado State University (Fort Collins) and University of Colorado Anschutz Medical campus. Hypoxic and normoxic calf eyes were obtained from the Department of Physiology, School of Veterinary Medicine, Colorado State University (Fort Collins, Colo.). Briefly, 1 day old male Holstein calves (n=4) were kept in hypobaric hypoxic chambers (PB=445 mm Hg) for 2 weeks. For control experiment, age matched calves (n=4) were kept at ambient altitude (PB=650 mm Hg) and normoxia for two weeks. Hypoxic and normoxic rat eyes were obtained from the Department of Medicine, University of Colorado Anschutz Medical campus (Aurora, Colo.). Sprague Dawley rats (n=4) were maintained in hypobaric hypoxic chambers (PB=380 mm Hg) for 6 weeks and age matched controls were kept at ambient pressure and normoxia.
(§4) In vitro transport studies across hypoxic and control calf cornea and sclera-choroid-RPE (SCRPE) were carried using cassette dosing approach. A cassette of drug transporter substrates, Gly-Sar (PEPT), valacylovir (ATB^0+), MPP^+ (OCT), and phenylacetic acid (MCT) at a concentration of 100 μM each in assay buffer was prepared. Briefly, the calf eyes were harvested immediately after euthanasia and transferred to the laboratory on ice. Upon arrival in the lab, the eyes were washed with assay buffer and cleaned from muscle and unwanted tissues. Anterior and posterior parts were separated by circumferential cut at the limbus. Vitreous was removed and the neural retina was separated from the choroid-RPE by filling the eye cup with assay buffer. The retina afloat in assay buffer was isolated and the eye cup was divided into two pieces (˜1.5×1.5 cm) of sclera-choroid-RPE. Isolated tissues were mounted on modified Ussing chambers (Navicyte, Sparks, Nev.) such that the episcleral side of SCRPE or epithelial side of cornea was facing the donor chamber and retinal side or endothelial side of the cornea was facing the receiver chamber. The chambers were filled with 1.5 ml of assay buffer at 37° C. with (donor side) or without (receiver side) the cocktail of drug transporter substrates. For the study of effect of transporter inhibitors, cocktail mixture (500 μM) of transporter inhibitors was added on both donor and acceptor sides.
(§5) During the transport study, the bathing fluids were maintained at 37° C. using circulating warm water. The pH of the fluids was maintained at pH 7.4 using 95% air-5% CO2 aeration. Samples were collected (200 μL) from receiver side every hour for 6 hours and the removed volume was replaced with fresh assay buffer pre-equilibrated to 37° C. Drug levels were analyzed using a LC-MS/MS assay. Permeation data were corrected for dilution of the receiver concentrations with sample volume replenishment.
(§6) Analyte concentrations in transport study samples were measured using LC-MS/MS method after 5-fold dilution with acetonitrile to reduce the salt concentrations. A cassette analysis method was developed for simultaneous analysis of Gly-Sar, valacylovir, and MPP Phenyl acetic acid was analyzed separately with a negative ionization method and a normal phase separation method. An API-3000 triple quadrupole mass spectrometry (Applied Biosystems, Foster City, Calif., USA) coupled with a PerkinElmer series-200 liquid chromatography (Perkin Elmer, Waltham, Mass., USA) system was used for analysis. Gly-Sar, valacylovir and MPP were separated on Supelco C-5 column (2.1×10 mm, 3 μm) using water containing 0.1% formic acid (A) and acetonitrile:methanol (50:50 v/v) containing 0.1% formic acid (B) as mobile phase. A linear gradient elution at a flow rate of 0.3 ml/min with a total run time of 9 min was employed. Phenyl acetic acid was separated in normal phase separation mode on Obelisc-N silica column (2.1×10 mm, 3 μM) using 5 mM ammonium formate at pH 3.5 (A) and acetonitrile (B) as mobile phase.

For data set [4], the system named is calf cornea. The experiment in a line: In vitro transport of substrate cassette across normoxic and hypoxic calf cornea. The settings on record: for apparent permeability (Papp) across hypoxic vs normoxic tissue (in words) / transport across hypoxic vs normoxic tissue (in words): calf cornea; for transport across hypoxic vs normoxic tissue (in words): cassette 100 μM.
From the text: as §3, §4, §5, §6

With `C[n+]1ccc(-c2ccccc2)cc1.[I-]` [MPP^+, MPP^+ iodide], in data set [1], the “sclera to retina transport in presence of transporter specific inhibitor (in words)” value is given as “significantly inhibited” and the “sclera to retina transport compared with retina to sclera transport (in words)” value is on record as “significantly higher”. In addition, the “inhibition of sclera to retina transport in presence of specific inhibitors” value in data set [1] (inhibitor cocktail 500 μM (metformin for MPP+)) was found to be 1.7 fold. Moreover, in data set [2] (human cornea), the “transport lower in presence of OCT inhibitor metformin” value is 2.6 fold and the “transport in presence of transporter inhibitor (in words)” value is given as “significantly inhibited”. Besides, in data set [3], the “apparent permeability (Papp) across hypoxic vs normoxic tissue (in words)” value was “significantly higher across normoxic SCRPE than hypoxic SCRPE” and the “transport across hypoxic vs normoxic tissue (in words)” value is recorded as “significantly decreased in hypoxic calf SCRPE”. For the same molecule, the “transport across hypoxic vs normoxic tissue (in words)” value in data set [3] (listed as MPP+) is recorded as “significantly higher across normoxic calf SCRPE than hypoxic calf SCRPE”. Moreover, in data set [3] (hypoxic vs normoxic calf SCRPE), the “decrease in cumulative % transport across hypoxic tissue” value is reported as 61%. In data set [4], the “apparent permeability (Papp) across hypoxic vs normoxic tissue (in words)” value is “significantly higher across normoxic cornea than hypoxic cornea” and the “transport across hypoxic vs normoxic tissue (in words)” value is recorded as “significantly higher across normoxic calf cornea than hypoxic calf cornea”. Further, the “decrease in cumulative % transport across hypoxic tissue” value in data set [4] (hypoxic vs normoxic calf cornea) is 49%.

Turning to `O=C(O)Cc1ccccc1` [phenyl acetic acid], in data set [1], the “sclera to retina transport in presence of transporter specific inhibitor (in words)” value was “no significant effect of inhibitor” and the “sclera to retina transport compared with retina to sclera transport (in words)” value is “retina to sclera transport was significantly higher than inward transport”. Besides, the “inward transport compared with outward transport (in words)” value in data set [2] (cornea) is “significantly higher than outward transport”. In addition, in data set [2] (human cornea), the “transport in presence of transporter inhibitor (in words)” value is on record as “significantly inhibited”. Also, in data set [3], the “apparent permeability (Papp) across hypoxic vs normoxic tissue (in words)” value is on record as “increased by several fold in hypoxic condition” and the “transport across hypoxic vs normoxic tissue (in words)” value is “increased by several fold in hypoxic condition”. Besides, in data set [3] (listed as phenylacetic acid), the “transport across hypoxic vs normoxic tissue (in words)” value is on record as “significantly higher across hypoxic SCRPE than normoxic SCRPE” and the “apparent permeability (Papp) across hypoxic vs normoxic tissue (in words)” value was “significantly higher across hypoxic SCRPE than normoxic SCRPE”. Also, in data set [4], the “apparent permeability (Papp) across hypoxic vs normoxic tissue (in words)” value is on record as “significantly higher across hypoxic cornea than normoxic cornea” and the “transport across hypoxic vs normoxic tissue (in words)” value is listed as “significantly higher than normoxic cornea”.

The record behind these values is patent US20130190324A1, “TOPICAL OCULAR DRUG DELIVERY” (The Regents of the University of Colorado, a body corporate, priority 2011, published 2013).
